In patent US20070197509A1, “Compositions and methods for modulating gated ion channels” (PainCeptor Pharma Corporation, priority 2005, published 2007):
“Also recorded” adds a separate entry of the source.

What was measured:
formalin-induced pain = test: Formalin test, model of acute tonic pain; format: in vivo; details: rat
Method: Male Sprague-Dawley rats are housed together in groups of three animals under standard conditions with unrestricted access to food and water. All experiments are conducted according to the ethical guidelines for investigations of experimental pain in conscious animals (Zimmerman, 1983)
Assessment of formalin-induced flinching behavior in normal, uninjured rats (body weight 150-180 g) was made with the use of an Automated Nociception Analyser (University of California, San Diego, USA). Briefly, this involved placing a small C-shaped metal band (10 mm wide×27 mm long) on the hindpaw of the rat to be tested. The rats (four rats were included in each testing session) were then placed in a cylindrical plexiglass observation chamber (diameter 30.5 cm and height 15 cm) for 20 min for adaptation purposes prior to being administered drug or vehicle according to the experimental paradigm being followed. […] Rats were then returned to their separate observation chambers, each of which were in turn situated upon an enclosed detection device consisting of two electromagnetic coils designed to produce an electromagnetic field in which movement of the metal band could be detected. […] A sampling interval of 1 min was used and on the basis of the resulting response patterns 5 phases of nociceptive behaviour were identified and scored: first phase (P1; 0-5 min), interphase (Int; 6-15 min), second phase (P2; […]), phase 2A (P2A; 16-40 min) and phase 2B (P2B; 41-60 min).
Nociceptive behavior was also determined manually every 5 min by measuring the amount of time spent in each of four behavioral categories: 0, treatment of the injected hindpaw is indistinguishable from that of the contralateral paw; 1, the injected paw has little or no weight placed on it; 2, the injected paw is elevated and is not in contact with any surface; 3, the injected paw is licked, bitten, or shaken. A weighted nociceptive score, ranging from 0 to 3 was calculated by multiplying the time spent in each category by the category weight, summing these products, and dividing by the total time for each 5 min block of time. […]

hASIC3 = molecular target: T1, hASIC3 (Homo sapiens, UniProt Q9UHC3); test: FlexStation assay on HEK293 cells expressing hASIC3; format: cell-based; set-up: expressed in transfected cells; host or cells: HEK293 cells; details: FlexStation (Flex), Tables A-F; read-out: Biological Data (IC50 uM) h3 (Flex)
T1 sequence (Q9UHC3 1-531): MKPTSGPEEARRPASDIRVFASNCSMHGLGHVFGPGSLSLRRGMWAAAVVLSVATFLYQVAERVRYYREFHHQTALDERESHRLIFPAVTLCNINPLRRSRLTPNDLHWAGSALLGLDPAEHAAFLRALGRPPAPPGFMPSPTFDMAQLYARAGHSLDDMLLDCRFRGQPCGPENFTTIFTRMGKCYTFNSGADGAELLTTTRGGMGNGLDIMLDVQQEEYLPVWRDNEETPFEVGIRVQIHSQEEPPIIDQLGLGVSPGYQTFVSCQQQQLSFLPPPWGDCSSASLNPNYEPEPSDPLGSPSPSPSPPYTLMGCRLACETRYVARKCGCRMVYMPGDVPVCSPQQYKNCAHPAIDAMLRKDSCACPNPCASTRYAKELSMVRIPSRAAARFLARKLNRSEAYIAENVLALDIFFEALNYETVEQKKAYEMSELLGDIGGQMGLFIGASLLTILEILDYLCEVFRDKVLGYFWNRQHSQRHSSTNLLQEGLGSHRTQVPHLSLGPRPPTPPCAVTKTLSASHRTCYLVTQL
Method: A vial of FMP dye (Molecular Devices) is resuspended in 10.5 ml of assay buffer (48.3 mM NaCl, 93 mM NMDG, 5 mM KCl, 5 mM CaCl2, 1 mM MgCl2, 10 mM HEPES, pH 7.4). The culture medium is aspirated from the wells, and 100 μl of the FMP loading solution is added to each well. The cells are incubated at 37° C. for 30 min.
After the loading period, the loading solution is left on the cells and the membrane potential-induced fluorescence is measured in FLIPR™ or FlexStation™ (Molecular Devices, USA), or any other suitable equipment known to the skilled in the art.
For cells co-expressing ASIC1a and ASIC3 channels (e.g. HEK293 cells), membrane potential dye (FMP dye) is used and the FlexStation settings are as above.
The MES-induced peak calcium response (or change in membrane potential), in the presence of test substance, is expressed relative to the MES response alone. Test substances that block the MES-induced calcium response (or change in membrane potential) are re-tested in triplicates. Confirmed hits are picked for further characterization by performing full dose-response curves to determine potency of each hit compound as represented by the IC50 values (i.e., the concentration of the test substance which inhibits 50% of the MES-induced calcium and/or membrane potentiation response; see, for example, FIG. 1).
The data shown in Table H was acquired using the FlexStation assay described in Example 1 on HEK293 cells expressing hASIC3 (h3) and/or hASIC1a (h1a).

Compound | formalin-induced pain, flinching / total pain score (FIG. 5) (formalin-induced pain; i.p. 30 min before formalin, Automated Nociception Analyser, phase 2, n=6) | IC50 (hASIC3) | ED50 (formalin-induced pain; licking and biting episodes in phase IIa of the formalin test (FIG. 7), read-out: ED50 (dose where the pain score is reduced by half)) | formalin-induced pain behavior (FIGS. 6A, 6B) (formalin-induced pain; manual scoring, overall pain behaviour and licking/biting, n=6)
COc1ccc(C(=O)CN2CCN(c3cc(C)nc4ccccc34)CC2)cc1 [Compound A, 1-(4-methoxy-phenyl)-2-[4-(2-methyl-quinolin-4-yl)-piperazin-1-yl]-ethanone] | able to reduce the total pain score behavior; also recorded: dose-dependent reduction of the pain intensity | – | – | –
Cc1cc(OC2CCN(Cc3ccccc3)CC2)c2ccccc2n1 [Compound R, 4-(1-benzyl-piperidin-4-yloxy)-2-methyl-quinoline] | – | 5 to 15 µM | ~50 mg/kg | dose-dependent effect; also recorded: dose-dependent reduction of the pain behavior
